# According to patent US20170056423A1 (Gilead Sciences, Inc., priority 2012, published 2017):
# Like-named read-outs stand apart in the source and are kept apart here.
# Tests used:
# [1] = target: aryl hydrocarbon receptor (Homo sapiens, UniProt P35869); test: aryl hydrocarbon receptor activation
# HIV-1 = details: against HIV-1 in T cells, activated PBMCs, and macrophages
# [2] = target: human pregnane X receptor (Homo sapiens, UniProt O75469); test: pregnane X receptor activation
# [3] = 25 mg level
# Protocol: In order to provide a robust assessment of pharmacokinetic comparisons between test versus reference treatments, a balanced Williams 4×4 design was used in each cohort.
# The evaluation used two cohorts of twenty patients. In Cohort 1, the following study treatments were administered.
# [4] = tested on: cytochrome P450 enzymes (all isoforms tested); test: in vitro; details: human
# UGT1A1 = UGT1A1 (Homo sapiens, UniProt P22309); details: at concentrations up to 50 μM
# UGT1A1, sequence (P22309 26-533): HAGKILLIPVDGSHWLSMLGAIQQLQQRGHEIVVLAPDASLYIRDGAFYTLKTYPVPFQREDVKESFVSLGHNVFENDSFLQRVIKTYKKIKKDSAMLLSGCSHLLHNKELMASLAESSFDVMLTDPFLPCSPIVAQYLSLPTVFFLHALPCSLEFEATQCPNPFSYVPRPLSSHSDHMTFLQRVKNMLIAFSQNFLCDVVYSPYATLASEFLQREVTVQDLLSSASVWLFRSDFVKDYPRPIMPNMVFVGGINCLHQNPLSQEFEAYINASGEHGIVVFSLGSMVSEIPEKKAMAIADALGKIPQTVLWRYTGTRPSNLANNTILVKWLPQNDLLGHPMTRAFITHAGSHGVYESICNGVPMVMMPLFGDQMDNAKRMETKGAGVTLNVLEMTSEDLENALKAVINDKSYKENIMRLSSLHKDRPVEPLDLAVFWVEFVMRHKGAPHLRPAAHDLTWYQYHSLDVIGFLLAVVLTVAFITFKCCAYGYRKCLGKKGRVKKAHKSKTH
# [5] = Study 1, while receiving GS-7340 SA (25 mg)
# human pregnane X receptor, sequence (O75469 whole entry): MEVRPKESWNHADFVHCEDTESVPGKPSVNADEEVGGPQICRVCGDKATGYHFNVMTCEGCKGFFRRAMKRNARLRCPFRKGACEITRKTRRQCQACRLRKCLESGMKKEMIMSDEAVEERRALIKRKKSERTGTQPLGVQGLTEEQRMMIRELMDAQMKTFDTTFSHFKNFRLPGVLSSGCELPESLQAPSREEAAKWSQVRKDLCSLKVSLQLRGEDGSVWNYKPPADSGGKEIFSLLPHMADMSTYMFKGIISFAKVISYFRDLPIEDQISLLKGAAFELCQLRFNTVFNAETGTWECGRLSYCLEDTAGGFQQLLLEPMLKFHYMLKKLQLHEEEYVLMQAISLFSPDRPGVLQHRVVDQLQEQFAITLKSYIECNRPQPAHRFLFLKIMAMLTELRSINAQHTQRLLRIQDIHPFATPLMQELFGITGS
# aryl hydrocarbon receptor, sequence (P35869 11-848, species assumed): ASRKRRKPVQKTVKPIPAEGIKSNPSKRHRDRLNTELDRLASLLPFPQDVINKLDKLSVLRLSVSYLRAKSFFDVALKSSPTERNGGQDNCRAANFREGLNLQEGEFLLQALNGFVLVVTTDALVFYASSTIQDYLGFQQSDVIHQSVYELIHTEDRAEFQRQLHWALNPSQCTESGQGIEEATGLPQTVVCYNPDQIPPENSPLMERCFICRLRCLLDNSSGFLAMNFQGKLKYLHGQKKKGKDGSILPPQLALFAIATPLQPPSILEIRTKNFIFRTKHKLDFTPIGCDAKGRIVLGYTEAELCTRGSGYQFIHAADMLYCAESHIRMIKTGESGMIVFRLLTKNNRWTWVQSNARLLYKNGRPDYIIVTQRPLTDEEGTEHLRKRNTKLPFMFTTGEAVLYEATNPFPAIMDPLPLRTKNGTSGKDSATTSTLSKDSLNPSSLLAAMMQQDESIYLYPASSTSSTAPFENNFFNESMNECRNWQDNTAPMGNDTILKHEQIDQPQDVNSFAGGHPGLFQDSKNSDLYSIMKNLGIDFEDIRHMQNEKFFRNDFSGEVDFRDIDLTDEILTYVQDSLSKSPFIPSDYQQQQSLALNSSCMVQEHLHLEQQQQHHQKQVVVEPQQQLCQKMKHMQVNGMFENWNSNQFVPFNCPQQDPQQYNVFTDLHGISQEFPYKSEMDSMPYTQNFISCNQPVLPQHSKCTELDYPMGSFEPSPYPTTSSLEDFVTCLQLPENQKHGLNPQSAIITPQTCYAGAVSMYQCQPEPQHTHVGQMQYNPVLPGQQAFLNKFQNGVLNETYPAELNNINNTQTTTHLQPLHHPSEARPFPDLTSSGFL
structure (smiles),measurement,setting,value
"CC(C)OC(=O)[C@H](C)N[P@](=O)(CO[C@H](C)Cn1cnc2c(N)ncnc21)Oc1ccccc1 [GS-7340, 9-[(R)-2-[[(S)-[[(S)-1-(isopropoxycarbonyl)ethyl]amino]phenoxyphosphinyl]methoxy]propyl]adenine]",activation of aryl hydrocarbon receptor,[1],not an activator
same,enhanced anti-HIV activity relative to tenofovir,HIV-1,500- to 1000 fold
same,activation of human pregnane X receptor,[2],not an activator
same,"GS-7340 levels, fold higher when administered with cobicistat","[3]; Cohort 1 (Formulation 1, monolayer), FIG. 6",2.2 fold
same,"GS-7340 levels, fold higher when administered with cobicistat","[3]; Cohort 2 (Formulation 2, bilayer), FIG. 7",2.2 fold
same,IC50,[4],> 7 µM
same,inhibition of UGT1A1 function,UGT1A1,does not inhibit
same,adverse event leading to one discontinuation,[5],rhabdomyolysis (Grade 2)
